Measured values as given in US4520024A, “Method of selectively blocking peripheral vascular serotonergic receptors” (Eli Lilly and Company, priority 1983, dated 1985).

What was measured:
[1] = tested on: alpha1 receptor; test: In vivo studies, pithed SHR, pressor response to methoxamine; parameters: species or system rat; conditions: i.p., rank order among three drugs
Procedure: SHR were anesthesized with halothane, femoral arterial and venous catheters implanted as before and the trachea cannulated. Each rat was pithed by passing a steel rod through the right orbit and down the entire length of the spinal column. The steel rod remained in place for the duration of the experiment. Immediately after pithing, the rats were ventilated with room air via a rodent respirator which eliminated any anesthetic effects. […] The response was recorded and the blood pressure allowed to recover to control levels. […] The test drugs were prepared fresh daily and administered by the intraperitoneal route. Benzoctamine and 1-(1-naphthyl)piperazine were administered at a 10 mg./kg. dosage and ketanserin at a 1 mg./kg. dosage.

[2] = tested on: alpha-adrenergic receptors; test: Apparent dissociation constant, antagonism of norepinephrine-induced contraction in rat aorta; assay type: cell-based
Description: (§1) Male Wistar rats (150-300 gram weight) were killed and their external jugular veins and thoracic aortas dissected free of connective tissue, cannulated in situ and placed in a modified Krebs' bicarbonate buffer in a suitable tissue bath. Two L-shaped 30-gauge stainless-steel hypodermic needles were inserted in each cannula and the dissected vessels gently pushed onto the needles. One needle was attached with thread to a stationary glass rod and the other to the transducer. [The procedure employed was that described by Hooker, Calkins and Fleisch, Blood Vessels, 14, 1, (1977) for use with circular smooth muscle preparations.]
(§2) The modified Krebs' bicarbonate buffer had the following makeup: (concentrations in millimoles): sodium chloride, 118.2; potassium chloride, 4.6; calcium chloride dihydrate, 1.6; potassium dihydrogenphosphate, 1.2; magnesium sulfate, 1.2; dextrose, 10.0; sodium bicarbonate, 24.8; and water q.s. to 1000 g. […] Isometric contractions were recorded as changes in grams of force on a Beckman Dynograph with Statham UC-3 transducers and microscale accessory attachment. […] Contraction to serotonin was evaluated in the jugular vein since this tissue produces marked responses to serotonin in the absence of alpha receptors--see Cohen and Wiley, J. Pharm. […] Alpha receptor antagonist activity was evaluated in the aorta. […]

[3] = biological target: T1, 5HT2 receptors (Rattus norvegicus, UniProt P14842); test: Apparent dissociation constant, antagonism of serotonin-induced contraction in rat jugular vein; assay type: cell-based; parameters: from tissue; host or cells: whole animal: pithed SHR, vascular tissue in vivo; conditions: serotonin as agonist, antagonist incubated one hour, read-out: -log KB for 5HT2 receptors (converted)
T1 sequence (P14842 whole entry): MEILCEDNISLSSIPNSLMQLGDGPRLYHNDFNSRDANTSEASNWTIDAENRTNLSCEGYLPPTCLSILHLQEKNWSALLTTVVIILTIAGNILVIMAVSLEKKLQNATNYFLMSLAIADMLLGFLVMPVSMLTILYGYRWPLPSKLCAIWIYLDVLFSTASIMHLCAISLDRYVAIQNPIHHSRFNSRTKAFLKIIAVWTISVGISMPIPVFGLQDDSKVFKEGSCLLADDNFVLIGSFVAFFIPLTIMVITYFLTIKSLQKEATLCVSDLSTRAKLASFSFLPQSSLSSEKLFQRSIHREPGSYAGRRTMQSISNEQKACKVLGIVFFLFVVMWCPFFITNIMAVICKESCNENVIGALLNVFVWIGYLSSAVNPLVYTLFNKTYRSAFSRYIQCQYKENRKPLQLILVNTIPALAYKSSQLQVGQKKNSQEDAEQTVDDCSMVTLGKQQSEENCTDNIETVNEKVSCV
Description: as §1, §2

[4] = tested on: conscious spontaneously hypertensive rats (SHR); test: In vivo studies, conscious SHR, mean arterial blood pressure; parameters: species or system rat; conditions: intraperitoneal, 10 mg./kg. dose level
Description: Twenty-four week old SHR (325-425 g.) rats were anesthetized with halothane. They were then implanted with femoral arterial and venous catheters. The tips of the arterial and venous catheters were positioned in the abdominal aorta below the renal arteries and lower abdominal vena cava, respectively. The catheters were routed subcutaneously to an exit point at the base of the skull and then through a small leather harness fastened around the forequarters of each animal. The animals were allowed a 3-4 day recovery period after surgery. On the day before a given experiment, the rats to be used in that experiment were conditioned to the experimental surroundings for about 6 hours. In carrying out the determination, the harness on the back of each animal was connected to a spring-tether through which arterial and venous extension tubing were routed. The opposite end of the tubing was connected to a water tight swivel. This system permitted direct recording of blood pressure in conscious, free-moving animals. Mean arterial blood pressure was measured via a Statham strain gauge transducer and recorded on a multichannel oscillograph. The rats were equilibrated for at least 30 minutes prior to the initiation of the experimental protocol. During this equilibration period, the animals preened themselves and the blood pressure was quite labile. After this period, the animals appeared to sleep and pressure was stable. Following a control blood pressure measurement, the rats were dosed with ketanserin, benzoctamine, 1-(1-naphthyl)piperazine or the experimental vehicle via the intraperitoneal route. Blood pressure was monitored at various time intervals after dosing.

[5] = biological target: T1, 5HT2 receptors; test: In vivo studies, pithed SHR, pressor response to serotonin; parameters: from tissue; host or cells: whole animal: pithed SHR, vascular tissue in vivo; conditions: i.p., rank order among three drugs
Procedure: SHR were anesthesized with halothane, femoral arterial and venous catheters implanted as before and the trachea cannulated. Each rat was pithed by passing a steel rod through the right orbit and down the entire length of the spinal column. The steel rod remained in place for the duration of the experiment. Immediately after pithing, the rats were ventilated with room air via a rodent respirator which eliminated any anesthetic effects. An equilibration period of 15 minutes was observed prior to control measurements and administration of drugs or vehicle i.p. Increasing doses of serotonin or methoxamine were injected i.v. 15 minutes after the equilibration period. The response was recorded and the blood pressure allowed to recover to control levels. […] The test drugs were prepared fresh daily and administered by the intraperitoneal route. Benzoctamine and 1-(1-naphthyl)piperazine were administered at a 10 mg./kg. dosage and ketanserin at a 1 mg./kg. dosage.

SMILES | inhibition in the pressor response to methoxamine ([1]; 10 mg./kg.) | -log KB for alpha-adrenergic receptors ([2]; rat thoracic aorta, norepinephrine as agonist, antagonist incubated one hour, 60 min) | lower affinity for alpha-adrenergic receptors than for 5HT2 receptors ([2]; ratio of affinities, 5HT2 versus alpha-adrenergic) | Kb [3] | blood pressure lowering [4] | inhibition of the pressor response to serotonin ([5]; 10 mg./kg.) | inhibition in the pressor response to methoxamine ([1]; 1 mg./kg.) | inhibition of the pressor response to serotonin ([5]; 1 mg./kg.)
c1ccc2c(N3CCNCC3)cccc2c1 [1-(1-naphthyl)piperazine] | the least | 5.38 | approximately 2000 fold | 1.78 nM | ineffective as a blood pressure lowering agent |  |  | 
CNCC12CCC(c3ccccc31)c1ccccc12 [benzoctamine] | second |  |  |  | lowered blood pressure as did ketanserin but to a lesser degree | then benzoctamine |  | 
O=C(c1ccc(F)cc1)C1CCN(CCn2c(=O)[nH]c3ccccc3c2=O)CC1 [ketanserin] |  |  |  |  | produced the greatest fall in blood pressure |  | greatest effect | greatest
